# Activity calls are given as the source filed them. No cut-off for these calls is given here.
# Columns and labels:
# H9c2 [1] = assay: Upregulation of Nrf2 mRNA expression in rat H9c2 cells at 10 uM incubated for 4 to 24 hrs by Trizol reagent based qRT-PCR analysis; type: functional, cell-based; conditions: time hrs 4-24
# [2] = molecular target: T1, KEAP1/NRF2 (Rattus norvegicus) (UniProt O54968+P57790); assay: Inhibition of Keap1-Nrf2 protein-protein interaction in rat H9c2 cells assessed as upregulation of NQO1 expression at 10 uM incubated up to 24 hrs by Western blot; type: cell-based; conditions: time hrs <=24
# [3] = AUC (0 to t) in rat at 5 mg/kg, iv by LC-MS/MS analysis; type: ADME, organism-based; set-up: dose 5 mg/kg; conditions: in vivo
# Mus musculus [4] = assay: Upregulation of GCLM expression in LPS-stimulated C57BL/6 mouse model of sepsis at 10 to 40 mg/kg, ip qd administered for 3 days prior to LPS stimulation and measured after 12 hrs by Western blot analysis; type: functional, organism-based; conditions: dose mg/kg 10-40, time 3.5 day
# CYP2D6 = CYP2D6 (Homo sapiens, UniProt P10635); assay: Inhibition of CYP2D6 (unknown origin) at 10 uM using promethazine as substrate preincubated for 5 mins followed by NADPH addition and measured after 20 mins by LC-MS/MS analysis relative to control; type: ADME; conditions: probe promethazine
# Mus musculus [5] = assay: Antioxidant activity against LPS-induced injury in C57BL/6 mouse assessed as reduction in ROS levels at 10 to 40 mg/kg, ip qd administered for 3 days prior to LPS stimulation and measured after 12 hrs by H2DCFDA probe based flow cytometry; type: functional, organism-based; conditions: dose mg/kg 10-40, time 3.5 day
# Mus musculus [6] = assay: Cardioprotective activity in LPS-stimulated sepsis in C57BL/6 mouse assessed as reduction in histological score at 10 mg/kg, ip qd administered for 3 days prior to LPS stimulation and measured after 12 hrs by hematoxylin and eosin staining based microscopy; type: functional, organism-based; conditions: time 3.5 day
# H9c2 [7] = assay: Antiinflammatory activity against LPS-induced sepsis in rat H9c2 cells assessed as decrease in secretion of IL-1beta at 1 to 10 uM pretreated for 12 hrs followed by LPS addition measured after 12 hrs by sandwich ELISA; type: functional, cell-based; conditions: dose microM 1-10, time 24.0 hrs
# H9c2 [8] = assay: Upregulation of Nrf2 protein levels in rat H9c2 cells incubated for 12 hrs by Western blot analysis; type: functional, cell-based; conditions: dose microM 0.1-10, time 12.0 hrs
# Mus musculus [9] = assay: Upregulation of HO1 expression in LPS-stimulated C57BL/6 mouse model of sepsis at 10 to 40 mg/kg, ip qd administered for 3 days prior to LPS stimulation and measured after 12 hrs by Western blot analysis; type: functional, organism-based; conditions: dose mg/kg 10-40, time 3.5 day
# Mus musculus [10] = assay: Antiinflammatory activity in LPS-stimulated sepsis in C57BL/6 mouse assessed as decrease in IL-1beta levels at 10 mg/kg, ip qd administered for 3 days prior to LPS stimulation and measured after 12 hrs by ELISA; type: functional, organism-based; conditions: time 3.5 day
# Mus musculus [11] = assay: Upregulation of NQO1 expression in LPS-stimulated C57BL/6 mouse model of sepsis at 10 to 40 mg/kg, ip qd administered for 3 days prior to LPS stimulation and measured after 12 hrs by Western blot analysis; type: functional, organism-based; conditions: dose mg/kg 10-40, time 3.5 day
# H9c2 [12] = assay: Upregulation of Nrf2 mRNA expression in rat H9c2 cells incubated for 12 hrs by Trizol reagent based qRT-PCR analysis; type: functional, cell-based; conditions: dose microM 0.1-10, time 12.0 hrs
# [13] = Apparent volume of distribution in rat at 5 mg/kg, iv by LC-MS/MS analysis; type: ADME, organism-based; conditions: in vivo, read-out: Vz
# H9c2 [14] = assay: Antiinflammatory activity against LPS-induced sepsis in rat H9c2 cells assessed as decrease in secretion of TNF-alpha at 1 to 10 uM pretreated for 12 hrs followed by LPS addition measured after 12 hrs by sandwich ELISA; type: functional, cell-based; conditions: dose microM 1-10, time 24.0 hrs
# [15] = molecular target: T1, KEAP1/NRF2 (Rattus norvegicus); assay: Inhibition of Keap1-Nrf2 protein-protein interaction in rat H9c2 cells assessed as upregulation of HO1 mRNA expression at 10 uM incubated for 4 to 24 hrs by Trizol reagent based qRT-PCR analysis; type: cell-based; conditions: time hrs 4-24
# Mus musculus [16] = assay: Antiinflammatory activity in LPS-stimulated sepsis in C57BL/6 mouse assessed as decrease in TNFalpha levels at 10 mg/kg, ip qd administered for 3 days prior to LPS stimulation and measured after 12 hrs by ELISA; type: functional, organism-based; conditions: time 3.5 day
# Mus musculus [17] = assay: Cardioprotective activity in LPS-stimulated sepsis in C57BL/6 mouse assessed as reduction in heart tissue damage at 10 mg/kg, ip qd administered for 3 days prior to LPS stimulation and measured after 12 hrs by hematoxylin and eosin staining based microscopy; type: functional, organism-based; conditions: time 3.5 day
# [18] = Half-life in rat at 5 mg/kg, iv by LC-MS/MS analysis; type: ADME, organism-based; conditions: in vivo
# [19] = molecular target: T1, KEAP1/NRF2 (Rattus norvegicus); assay: Inhibition of Keap1-Nrf2 protein-protein interaction in rat H9c2 cells assessed as upregulation of NQO1 mRNA expression at 10 uM incubated for 4 to 24 hrs by Trizol reagent based qRT-PCR analysis; type: cell-based; conditions: time hrs 4-24
# Mus musculus [20] = assay: Antiinflammatory activity in LPS-stimulated sepsis in C57BL/6 mouse assessed as decrease in IL-6 levels at 10 mg/kg, ip qd administered for 3 days prior to LPS stimulation and measured after 12 hrs by ELISA; type: functional, organism-based; conditions: time 3.5 day
# [21] = Metabolic stability in human liver microsome assessed as parent compound remaining at 1 uM preincubated for 5 mins followed by NADPH addition and measured after 45 mins by LC-MS/MS analysis; type: ADME; conditions: liver microsomes, time 50 min, read-out: Stabilty
# H9c2 [22] = assay: Antioxidant activity against LPS-induced injury in rat H9c2 cells assessed as decrease in ROS level at 10 uM pretreated for 12 hrs followed by LPS addition measured after 12 hrs by H2DCFDA probe based flow cytometry; type: functional, cell-based; conditions: time 24.0 hrs
# H9c2 [23] = assay: Cytoprotective activity against LPS-induced sepsis in rat H9c2 cells assessed as increase in cell viability pretreated with compound for 12 hrs followed by LPS addition measured after 12 hrs by MTT assay; type: functional, cell-based; conditions: dose microM 0.1-10, time 24.0 hrs
# CYP2D6, sequence (P10635 whole entry): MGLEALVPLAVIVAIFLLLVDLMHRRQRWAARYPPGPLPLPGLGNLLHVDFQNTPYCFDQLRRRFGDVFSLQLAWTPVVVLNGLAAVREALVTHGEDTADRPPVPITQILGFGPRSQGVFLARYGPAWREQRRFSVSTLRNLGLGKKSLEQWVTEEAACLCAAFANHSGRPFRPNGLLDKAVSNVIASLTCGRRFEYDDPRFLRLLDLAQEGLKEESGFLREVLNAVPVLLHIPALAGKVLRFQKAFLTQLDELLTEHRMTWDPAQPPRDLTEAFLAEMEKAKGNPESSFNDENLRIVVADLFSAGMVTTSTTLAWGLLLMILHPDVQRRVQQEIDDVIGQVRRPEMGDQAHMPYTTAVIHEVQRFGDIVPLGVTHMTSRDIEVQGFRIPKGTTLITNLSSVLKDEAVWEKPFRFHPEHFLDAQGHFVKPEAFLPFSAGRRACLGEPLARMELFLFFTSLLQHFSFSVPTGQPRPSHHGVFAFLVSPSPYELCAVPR
smiles,measurement,setting,value
COc1ccc(S(=O)(=O)NC(=O)CN(c2cccc3c2CCN3C(C(=O)NS(=O)(=O)c2ccc(C)cc2OC)c2cccc(OC)c2)S(=O)(=O)c2ccc(OC)cc2)cc1 (centres undefined),Activity,H9c2 [1],Active
same,inhibition,[2],Active
same,AUC(0-t),[3],47000 ng·h/mL
same,Activity,Mus musculus [4],Active
same,"inhibition at 20 min, 10 µM",CYP2D6,19.9%
same,Activity,Mus musculus [5],Active
same,Activity,Mus musculus [6],Active
same,Activity,H9c2 [7],Active
same,Activity,H9c2 [8],Dose-dependent effect
same,Activity,Mus musculus [9],Active
same,Activity,Mus musculus [10],Active
same,Activity,Mus musculus [11],Active
same,Activity,H9c2 [12],Dose-dependent effect
same,Vd,[13],0.64 L/kg
same,Activity,H9c2 [14],Active
same,inhibition,[15],Active
same,Activity,Mus musculus [16],Active
same,Activity,Mus musculus [17],Active
same,half-life,[18],4.02 h
same,inhibition,[19],Active
same,Activity,Mus musculus [20],Active
same,"remaining at 0.75 h, 1 µM",[21],74.4%
same,Activity,H9c2 [22],Active
same,Activity,H9c2 [23],Dose-dependent effect
